Each structure is given as a SMILES string.

The test system of test [1] is Akt phosphorylation in Panc-1 cells. Description: Western AKT cell-based phosphorylation assay. Particulars: at 10 μM, values in brackets < > are activation %, not inhibition. Also noted: species or system human. Here is the method:
Human Tumor-Derived Pancreatic Cancer Cell Line Panc-1 was Purchased from
American Type Culture Collection and grown in complete DMEM-High Glucose supplemented with penicillin (100 U/mL), streptomycin (100 μg/mL), and 10% heat-inactivated FBS at 37° C. in a humidified incubator with 5% CO2.
Method: Cells were plated at 350000 cells/well density in a 12-well plate, allowed 3 hours to adhere to the plate, then starved in the appropriate medium in the presence of 0.5% FBS overnight. The small molecules to be tested were added to the cells in the final concentration of 10 μM in the presence of 0.3% DMSO for 6 hours incubation at 37° C. Next, cells were stimulated with 1.5 ng/ml EGF for 15 minutes then cells were lysed with lysis buffer containing 1% Triton X-100, EDTA, and Halt™ Protease & Phosphatase Inhibitor Cocktail (Thermo Scientific). Protein concentration was assessed by BCA protein assay (Thermo Scientific). Phosphorylation level of Akt was determined by western blot.
Western blot protocol: Equal amounts of protein (15-50 μg) were separated by SDS-PAGE and transferred to nitrocellulose membranes (Invitrogen by Thermo Fisher Scientific). The membrane was stained with Ponceau S Stain (Boston BioProducts) to verify uniform protein loading. Membranes were blocked with 10% milk and phosphorylation levels of Akt were assessed by incubating overnight at 4° C. with anti-phospho-Akt (Ser473) antibody (Cell Signaling) followed by HRP-conjugated secondary antibody (Jackson Immunoresearch, West Grove, Pa.). Bands were incubated in Amersham ECL Prime Western Blotting Detection Reagent (GE Healthcare) and visualized using the ChemiDoc MP imaging system (Bio-Rad).

Test [2] relates to MIA-PaCa-2 pancreatic cancer cell line (KRAS G12C). In words: Cell proliferation assay (CellTiter 96 Aqueous One). Particulars: Homo sapiens; for IC50: MIA PaCa-2, MIA PaCa-2; for inhibition at 10 µM: MIA PaCa-2, read-out: % inh cell proliferation (10 μM) in MIA PaCa-2. In kind it is cell-based. Here is the method:
Cell lines: Human tumor-derived cell lines were purchased from American Type Culture Collection. Human tumor-derived pancreatic cancer cell line MIA-PACA2 (having a KRAS G12C mutation) and Panc-1 (having a KRAS G12D mutation), and Human non-small cell lung cancer (NSCLC) cell line A549 (having a KRAS G12S mutation) were grown in complete DMEM-High Glucose. Human colon cancer cell line SW-620 (having a KRAS G12V mutation) was grown in RPMI. All cell lines were supplemented with penicillin (100 U/mL), streptomycin (100 μg/mL), and 10% heat-inactivated FBS at 37° C. in a humidified incubator with 5% CO2.
Method: Cells were plated at 2000 to 5000 cells/well density in 96-wells plate and cultured overnight. Small molecules to be tested were added to the cells in the final concentration of 10 μM in the presence of 0.3% DMSO and 10% FBS, and incubated for 2-4 days at 37° C. in a humidified incubator with 5% CO2. For IC50 value determination, serial dilutions of compounds were added to cells under the same conditions.
Assay: At the end of the incubation period, cell viability was measured using the CellTiter 96® Aqueous One Solution Cell Proliferation Assay according to manufacturer specifications (Promega, Madison, Wis.). The percentage of small molecules inhibition of cellular proliferation was calculated from raw data.

`O=C(Nc1ccccc1)c1nc(O)c2scc(-c3ccccn3)c2n1` [Compound 23, 4-Hydroxy-N-phenyl-7-(pyridin-2-yl)thieno[3,2-d]pyrimidine-2-carboxamide]: in test [1], the “% inh of AKT phosphorylation in PANC-1” value is recorded as 0 (0% inhibition). Also, in test [2], the half-inhibitory concentration (IC50) was over 10 µM and the inhibition at 10 µM came out at 0%.
The matching figures for `CO[C@H]1C[C@@H](Nc2nc(-c3nccn3C)nc3sc(-c4ccn(C(C)C)n4)c(C)c23)C1` [Compound 96, 6-(1-isopropyl-1H-pyrazol-3-yl)-N-((1s,3s)-3-methoxycyclobutyl)-5-methyl-2-(1-methyl-1H-imidazol-2-yl)thieno[2,3-d]pyrimidin-4-amine]: 0 (0% inhibition), over 10 µM and 1 to 25%.
The matching figures for `COCCNC(=O)c1nc(O)c2scc(-c3ccccn3)c2n1` [Compound 21, 4-Hydroxy-N-(2-methoxyethyl)-7-(pyridin-2-yl)thieno[3,2-d]pyrimidine-2-carboxamide]: 0 (0% inhibition), over 10 µM and 1 to 25%.
As to `COc1cccc(Nc2nc(-c3nccn3C)nc3sc(-c4ccn(C(C)C)n4)c(C)c23)c1` [Compound 64, 6-(1-Isopropyl-1H-pyrazol-3-yl)-N-(3-methoxyphenyl)-5-methyl-2-(1-methyl-1H-imidazol-2-yl)thieno[2,3-d]pyrimidin-4-amine], the “% inh of AKT phosphorylation in PANC-1” value in test [1] was “B (26-50% inhibition)”. Also, in test [2], the 50% inhibitory concentration (IC50) was 5 to 10 µM and the inhibition at 10 µM was in the range of 76 to 100%.
For `COC1CCCN(c2nc(-c3nccn3C)nc3sc(-c4ccn(C(C)C)n4)c(-c4ccccc4)c23)C1` (racemic) [Compound 77, Rac-6-(1-isopropyl-1H-pyrazol-3-yl)-4-(3-methoxypiperidin-1-yl)-2-(1-methyl-1H-imidazol-2-yl)-5-phenylthieno[2,3-d]pyrimidine], in test [1], the “% inh of AKT phosphorylation in PANC-1” value is “<A>”. Moreover, in test [2], the IC50 was 5 to 10 µM and the inhibition at 10 µM lay within 76 to 100%.
Regarding `Cc1c(-c2ccn(C(C)C)n2)sc2nc(-c3nccn3C)nc(N3CCC(COC(C)C)C3)c12` (racemic) [Compound 62, rac-4-(3-(Isopropoxymethyl)pyrrolidin-1-yl)-6-(1-isopropyl-1H-pyrazol-3-yl)-5-methyl-2-(1-methyl-1H-imidazol-2-yl)thieno[2,3-d]pyrimidine], in test [1], the “% inh of AKT phosphorylation in PANC-1” value was “B (26-50% inhibition)”. In addition, in test [2], the IC50 was under 1 µM and the inhibition at 10 µM was in the range of 76 to 100%.
The matching figures for `CO[C@@H]1CC[C@H](Nc2nc(-c3nccn3C)nc3sc(-c4ccn(C(C)C)n4)c(C)c23)C1` [Compound 31, 6-(1-Isopropyl-1H-pyrazol-3-yl)-N-((1S,3R)-3-methoxycyclopentyl)-5-methyl-2-(1-methyl-1H-imidazol-2-yl)thieno[2,3-d]pyrimidin-4-amine]: 0 (0% inhibition), under 1 µM and 76 to 100%.
`COCC1CCN(c2nc(-c3nccn3C)nc3sc(-c4ccn(C(C)C)n4)c(-c4ccccc4)c23)C1` (racemic) [Compound 76, Rac-6-(1-isopropyl-1H-pyrazol-3-yl)-4-(3-(methoxymethyl)pyrrolidin-1-yl)-2-(1-methyl-1H-imidazol-2-yl)-5-phenylthieno[2,3-d]pyrimidine]: the “% inh of AKT phosphorylation in PANC-1” value in test [1] is listed as 0 (0% inhibition). Besides, in test [2], the IC50 was under 1 µM and the inhibition at 10 µM fell in the range of 76 to 100%.
The like results for `CO[C@H]1CC[C@@H](Nc2nc(-c3nccn3C)nc3sc(-c4ccn(C(C)C)n4)c(C)c23)CC1` [Compound 55] were, in that order, “<A>”, under 1 µM and 76 to 100%.
The like results for `CO[C@H]1CC[C@@H](Nc2nc(-c3nccn3C)nc3sccc23)C1` (racemic) [Compound 10, Rac-N-((1R,3S)-3-methoxycyclopentyl)-2-(1-methyl-1H-imidazol-2-yl)thieno[2,3-d]pyrimidin-4-amine] were, in that order, 0 (0% inhibition), over 10 µM and 26 to 50%.
The like results for `COCCCn1ccnc1-c1nc(O)c2scc(-c3ccccn3)c2n1` [Compound 79, 2-(1-(3-Methoxypropyl)-1H-imidazol-2-yl)-7-(pyridin-2-yl)thieno[3,2-d]pyrimidin-4-ol] were, in that order, “<B>”, 1 to 4.99 µM and 76 to 100%.
As for `CO[C@H]1CC[C@@H](Nc2nc(C(N)=O)nc3sc(-c4ccn(C(C)C)n4)cc23)C1` (racemic) [Compound 17, Rac-6-(1-isopropyl-1H-pyrazol-3-yl)-4-(((1R,3S)-3-methoxycyclopentyl)amino)thieno[2,3-d]pyrimidine-2-carboxamide], the “% inh of AKT phosphorylation in PANC-1” value in test [1] is recorded as 0 (0% inhibition). In test [2], the IC50 is over 10 µM and the inhibition at 10 µM was 1 to 25%.
For `CO[C@H]1CC[C@@H](Nc2nc(C(=O)Nc3ccccc3)nc3sccc23)C1` (racemic) [Compound 15, rac-4-(((1R,3S)-3-Methoxycyclopentyl)amino)-N-phenylthieno[2,3-d]pyrimidine-2-carboxamide], the “% inh of AKT phosphorylation in PANC-1” value in test [1] was 0 (0% inhibition). In test [2], the half-maximal inhibitory concentration (IC50) was over 10 µM and the inhibition at 10 µM lay in the range of 1 to 25%.
On to `CO[C@@H]1CCCN(c2nc(-c3nccn3C)nc3sc(-c4ccn(C(C)C)n4)c(C)c23)C1` [Compound 50, (R)-6-(1-Isopropyl-1H-pyrazol-3-yl)-4-(3-methoxypiperidin-1-yl)-5-methyl-2-(1-methyl-1H-imidazol-2-yl)thieno[2,3-d]pyrimidine], for which the “% inh of AKT phosphorylation in PANC-1” value in test [1] was “D (76-100% inhibition)”. Also, the inhibition at 10 µM in test [2] lay in the range of 76 to 100%.
With `CC(C)NC(=O)c1nc(O)c2scc(-c3ccccn3)c2n1` [Compound 20, 4-Hydroxy-N-isopropyl-7-(pyridin-2-yl)thieno[3,2-d]pyrimidine-2-carboxamide], the “% inh of AKT phosphorylation in PANC-1” value in test [1] is given as 0 (0% inhibition). In test [2], the IC50 is over 10 µM and the inhibition at 10 µM lay within 1 to 25%.
The like results for `Cc1c(-c2ccn(C(C)C)n2)sc2nc(-c3nccn3C)nc(NC[C@H]3CCC(=O)N3)c12` [Compound 52, (R)-5-(((6-(1-Isopropyl-1H-pyrazol-3-yl)-5-methyl-2-(1-methyl-1H-imidazol-2-yl)thieno[2,3-d]pyrimidin-4-yl)amino)methyl)pyrrolidin-2-one] were, in that order, 0 (0% inhibition), over 10 µM and 1 to 25%.
The like results for `COC1CCCN(c2nc(-c3ccccn3)nc3sc(-c4ccn(C(C)C)n4)c(C)c23)C1` (racemic) [Compound 70, Rac-6-(1-Isopropyl-1H-pyrazol-3-yl)-4-(3-methoxypiperidin-1-yl)-5-methyl-2-(pyridin-2-yl)thieno[2,3-d]pyrimidine] were, in that order, 0 (0% inhibition), 5 to 10 µM and 76 to 100%.
Regarding `Cc1c(-c2ccn(C(C)C)n2)sc2nc(-c3nccn3C)nc(NC[C@@H]3CCC(=O)N3)c12` [Compound 51], in test [1], the “% inh of AKT phosphorylation in PANC-1” value is 0 (0% inhibition). In test [2], the half-maximal inhibitory concentration (IC50) is over 10 µM and the inhibition at 10 µM is 0%.
Regarding `O=C(Nc1ccccn1)c1nc(O)c2scc(-c3ccccn3)c2n1` [Compound 24, 4-Hydroxy-N,7-di(pyridin-2-yl)thieno[3,2-d]pyrimidine-2-carboxamide], the “% inh of AKT phosphorylation in PANC-1” value in test [1] was 0 (0% inhibition). Besides, in test [2], the IC50 was over 10 µM and the inhibition at 10 µM is 1 to 25%.

Broadly, the IC50 is the concentration at which inhibition is half-maximal. Lower therefore signals greater potency.

Values taken from US20230227466A1, “SUBSTITUTED THIENOPYRIMIDINES THAT INTERACT WITH THE RAS SUPERFAMILY FOR THE TREATMENT OF CANCERS, INFLAMMATORY DISEASES, RASOPATHIES, AND FIBROTIC DISEASE” (SHY Therapeutics, LLC, priority 2020, published 2023).
